Data reported in US7288567B2, “Inhibitors of histone deacetylase” (Methylgene Inc., priority 2000, dated 2007).
Where a name gives a salt, the structure may show the parent alone.

biological target: T1, recombinant human HDAC-1 enzyme (rHDAC-1) (Homo sapiens, UniProt Q13547); test: Histone deacetylase inhibition, recombinant human HDAC-1; assay type: biochemical; conditions: not given
T1 construct: made in house; host or cells: Baculovirus insect cell expression system
Procedure: The reaction was stopped by adding acetic acid (0.04 M, final concentration) and HCl (250 mM, final concentration). The mixture was extracted with ethyl acetate and the released [^3H]-acetic acid was quantified by scintillation counting. For inhibition studies, the enzyme was preincubated with compounds at 4° C. for 30 minutes prior to initiation of the enzymatic assay. IC50 values for HDAC enzyme inhibitors were determined by performing dose response curves with individual compounds and determining the concentration of inhibitor producing fifty percent of the maximal inhibition.

T1 sequence (Q13547 whole entry): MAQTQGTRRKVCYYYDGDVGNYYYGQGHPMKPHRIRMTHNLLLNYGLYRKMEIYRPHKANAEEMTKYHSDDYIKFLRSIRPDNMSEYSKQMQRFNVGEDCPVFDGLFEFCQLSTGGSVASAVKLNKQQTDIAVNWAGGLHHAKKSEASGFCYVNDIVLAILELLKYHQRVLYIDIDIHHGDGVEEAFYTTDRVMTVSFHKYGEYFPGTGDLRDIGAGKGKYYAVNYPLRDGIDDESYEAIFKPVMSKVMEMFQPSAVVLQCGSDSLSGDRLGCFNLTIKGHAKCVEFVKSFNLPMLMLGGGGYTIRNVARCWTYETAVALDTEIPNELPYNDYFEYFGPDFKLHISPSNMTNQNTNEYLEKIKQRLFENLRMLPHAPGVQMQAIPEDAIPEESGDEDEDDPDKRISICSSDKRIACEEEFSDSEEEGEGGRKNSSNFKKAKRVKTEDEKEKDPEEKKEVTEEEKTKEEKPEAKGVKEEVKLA

Compound	IC50
O=C(CCCCCNCc1ccc2ccccc2c1)NO [Compound 223, N-Hydroxy-6-N-(2-naphthylmethylamino)hexanamide trifluoroacetate]	2 µM

same assay, conditions: cloned recombinant human HDAC-1, Baculovirus insect cell expression; read-out: rHDAC-1 IC50

Compound	IC50
CON=C(CCCCCCC(=O)Nc1ccccc1N)c1cccc(-c2ccccc2)c1 (mixture of isomers) [Compound 135, N-(2-Aminophenyl)-8-(E)-O-methyl-oximino-8-(3-biphenyl)octanamide]	2 µM
Nc1ccccc1NC(=O)CCCCCCC(=O)c1ccccc1 [Compound 53a, N-(2-Aminophenyl)-7-benzoylheptanamide]	0.6 µM
COc1ccc(N)c(NC(=O)CCCCCCC(=O)c2ccc(-c3ccccc3)cc2)c1 [Compound 83, N-(3-(4-Amino)anisole)-7-[(4-biphenyl)carbonyl]heptanamide]	25 µM
O=C(CCCCCCC(=O)c1ccccc1)Nc1ccccc1O [Compound 86, N-(2-Hydroxyphenyl)-7-(benzoyl)heptanamide]	5 µM
O=C(CCCCCCC(=O)c1cc2ccccc2[nH]1)NO [Compound 100, N-Hydroxy-7-[2-(indolyl)carbonyl]heptanamide]	4 µM
O=C(CCCCCC(=O)c1ccc(-c2ccccc2)cc1)Nc1n[nH]c(=S)s1 [Compound 128, N-(4,5-Dihydro-5-thioxo-1,3,4-thiadiazol-2-yl)-6-[(4-biphenyl)carbonyl]hexanamide]	19 µM
Nc1ccccc1NC(=O)CCCCCC(=O)c1ccc(-c2ccccc2)cc1 [Compound 129, N-(2-Aminophenyl)-6-[(biphenyl)carbonyl]hexanamide]	1 µM
O=C(CCCCCCC(=O)c1ccc(N2CCNCC2)cc1)NO [Compound 138c2]	0.03 µM
O=C(CCCCCCC(=O)c1ccc(NCc2cccnc2)cc1)NO [Compound 138f, N-Hydroxy-7-[4(N-3-aminomethylpyridyl)benzoyl]heptanamide]	0.02 µM
Nc1ccccc1NC(=O)CCCCCCC(=O)c1ccc(-c2ccc(CN3CCOCC3)cc2)cc1 [Compound 157, N-(2-Aminophenyl)-7-[4-(4-(N-methylmorpholinyl)phenyl)benzoyl]heptanamide]	4 µM
CN(CCCCCC(=O)NO)Cc1ccc2ccccc2c1 [Compound 209, N-Hydroxy-N-(2-naphthylmethyl-methylamino)hexanamide]	0.05 µM
CN(CCCCCC(=O)Nc1ccccc1N)Cc1ccc2ccccc2c1 [Compound 210, N-(2-Aminophenyl)-N-(2-naphthylmethyl-methylamino)hexanamide]	10 µM
O=C(CCCCCN(Cc1ccc2ccccc2c1)C(=O)OCc1ccccc1)NO [Compound 220a, N-Hydroxy-6-N-(Benzyloxycarbonyl-2-naphthylmethylamino)hexanamide]	0.02 µM
CC(C)(C)OC(=O)N(CCCCCC(=O)NO)Cc1ccc2ccccc2c1 [Compound 222, N-Hydroxy-6-N-(tert-butoxycarbonyl-2-naphthylmethylamino)hexanamide]	0.1 µM
CC(C)(C)OC(=O)N(CCCCCC(=O)Nc1ccccc1N)Cc1ccc2ccccc2c1 [Compound 224, N-(2-Aminophenyl)-6-N-(tert-butoxycarbonyl-2-naphthylmethylamino)-hexanamide]	3 µM
O=C(CCCCSCC(=O)c1ccc2ccccc2c1)NO [Compound 226a, N-Hydroxy-5-(2-naphthoylmethylsulfanyl)pentanamide]	0.007 µM
Nc1ccccc1NC(=O)CCCCSCC(=O)c1ccc(-c2ccccc2)cc1 [Compound 227b, N-(2-Aminophenyl)-5-(4-biphenylcarbonylmethanesulfanyl)pentanamide]	3 µM
O=C(CCCCS(=O)(=O)CC(=O)c1ccc2ccccc2c1)NO [Compound 229a, N-Hydroxy-5-(2-naphthoylmethylsulfonyl)pentanamide]	1 µM
Nc1ccccc1NC(=O)CCCCS(=O)(=O)CC(=O)c1ccc(-c2ccccc2)cc1 [Compound 230b, N-(2-Aminophenyl)-5-(4-biphenylcarbonylmethylsulfonyl)pentanamide]	12 µM
Nc1ccccc1NC(=O)CCCCCCOc1ccc(-c2ccccc2)cc1 [Compound 234, N-(2-Aminophenyl)-7-(4-biphenyloxy)heptanamide]	1 µM
Nc1ccccc1NC(=O)CCCCN1C(=O)c2ccccc2C1=O [Compound 243b, N-(2-Aminophenyl)-5-(N-phthaloyl)pentanamide]	99 µM
Nc1ccccc1NC(=O)CCCCCN1C(=O)c2cc(O)c(CN3CCCCC3)cc2C1=O [Compound 243h, N-(2-Aminophenyl)-6-(5-hydroxy-6-(1-methylpiperidinyl)-N-phthaloyl)-hexanamide]	3 µM
Nc1ccccc1NC(=O)CCCCCN1C(=O)c2cccnc2C1=O [Compound 246a]	5 µM
Nc1ccccc1NC(=O)CCCCCN1C(=O)c2cccc3c(Br)ccc(c23)C1=O [Compound 251b, N-(2-Aminophenyl)-6-[2-(6-bromo-1,3-dioxo-1H,3H-benzo[de]isoquinolinyl)]-hexanamide]	1 µM

The next lines start with the values.

IC50	Compound
9 µM	O=C(CCCCCCC(=O)c1ccc(-c2ccccc2)cc1)Nc1n[nH]c(=S)s1 [Compound 79, N-(4,5-Dihydro-5-thioxo-1,3,4-thiadiazol-2-yl)-7-[(4-biphenyl)carbonyl]-heptanamide]
3 µM	Nc1ccccc1NC(=O)CCCCCCCC(=O)c1ccc(-c2ccccc2)cc1 [Compound 130, N-(2-Aminophenyl)-8[(4-biphenyl)carbonyl]octanamide]
0.008 µM	O=C(CCCCCCC(=O)c1cccc(-c2ccccc2)c1)NO [Compound 131, N-Hydroxy-7-[(3-biphenyl)carbonyl]heptanamide]
0.8 µM	Nc1ccccc1NC(=O)CCCCCCC(=O)c1cccc(-c2ccccc2)c1 [Compound 132, N-(2-Aminophenyl)-7-[(3-biphenyl)carbonyl]heptanamide]
1 µM	Nc1ccccc1NC(=O)CCCCCCC(O)c1cccc(-c2ccccc2)c1 (centres unmarked) [Compound 133, N-(2-Aminophenyl)-8-(3-biphenyl)-8-hydroxy-octanamide]
0.03 µM	CC(C)(C)OC(=O)N1CCN(c2ccc(C(=O)CCCCCCC(=O)NO)cc2)CC1 [Compound 138c1, N-Hydroxy-7-[4-(1-(4-tert-butyloxycarbonylpiperazinyl))benzoyl]heptanamide]
0.05 µM	COc1ccc(-c2ccc(C(=O)CCCCCCC(=O)NO)cn2)cc1OC [Compound 150, N-Hydroxy-7-[5-(2-(3,4-dimethoxyphenyl)pyridyl)carbonyl]heptanamide]
24 µM	C/C(=C/C(=O)Nc1ccccc1N)CCCCC(=O)c1ccc2ccccc2c1 [Compound 194, (Z)-N-(2-Aminophenyl)-3-methyl-7-(2-naphthoyl)-2-heptenamide]
16 µM	CC(CCCCC(=O)c1ccc2ccccc2c1)CC(=O)Nc1ccccc1N (centres unmarked) [Compound 198, (Z)-N-(2-Aminophenyl)-3-methyl-7-(2-naphthoyl)heptanamide]
3 µM	CN(CCCCC(=O)NO)Cc1ccc2ccccc2c1 [Compound 213, N-Hydroxy-5-N-(2-naphthylmethyl-methylamino)pentanamide]
0.3 µM	CN(CCCCC(=O)NO)CCc1ccc2ccccc2c1 [Compound 216, N-Hydroxy-5-N-[2-(2-naphthylethyl)-methylamino]pentanamide]
0.1 µM	O=C(CCCCCN(Cc1ccccc1)Cc1ccc2ccccc2c1)NO [Compound 220b, N-Hydroxy-6-N-(Benzyl-2-naphthylmethylamino)hexanamide]
0.006 µM	O=C(CCCCSCC(=O)c1ccc(-c2ccccc2)cc1)NO [Compound 226b, N-Hydroxy-5-(4-biphenylcarbonylmethanesulfanyl)pentanamide]
3 µM	Nc1ccccc1NC(=O)CCCCSCC(=O)c1ccc2ccccc2c1 [Compound 227a, N-(2-Aminophenyl)-5-(2-naphthoylmethylsulfanyl)pentanamide]
0.04 µM	O=C(CCCCS(=O)(=O)CC(=O)c1ccc(-c2ccccc2)cc1)NO [Compound 229b, N-Hydroxy-5-(4-biphenylcarbonylmethylsulfonyl)pentanamide]
5 µM	Nc1ccccc1NC(=O)CCCCS(=O)(=O)CC(=O)c1ccc2ccccc2c1 [Compound 230a, N-(2-Aminophenyl)-5-(2-naphthoylmethylsulfonyl)pentanamide]
4 µM	Nc1ccccc1NC(=O)CCCCCCN1C(=O)c2ccccc2C1=O [Compound 243c, N-(2-Aminophenyl)-7-(N-phthaloyl)heptanamide]
12 µM	Nc1ccccc1NC(=O)CCCCCN1C(=O)c2ccc([N+](=O)[O-])cc2C1=O [Compound 243e, N-(2-Aminophenyl)-6-(5-nitro-N-phthaloyl)hexanamide]
3 µM	Nc1ccccc1NC(=O)CCCCCN1C(=O)c2cc(Cl)c(Cl)cc2C1=O [Compound 243f, N-(2-Aminophenyl)-6-(5,6-dichloro-N-phthaloyl)hexanamide]
3 µM	Nc1ccccc1NC(=O)CCCCCN1C(=O)c2ccc(O)cc2C1=O [Compound 243g, N-(2-Aminophenyl)-6-(5-hydroxy-N-phthaloyl)hexanamide]
14 µM	Nc1ccccc1NC(=O)CCCCCN1C(=O)c2ccncc2C1=O [Compound 246b]
4 µM	Nc1ccccc1NC(=O)CCCCCN1Cc2ccccc2C1=O [Compound 248, N-(2-Aminophenyl)-6-[2-(1-oxo-1,3-dihydro-isoindolyl)]hexanamide]
